± gives the standard deviation of the averaged measurements.
How the values were obtained:
Assay in all cases: level (log10 ratio to DMSO vehicle control); higher = higher biomarker level / cell amount than vehicle control
Settings in all cases: in DMSO
[1] = compound: CCCCCCCCC(F)(F)C(F)(F)C(F)(F)C(F)(F)C(F)(F)C(F)(F)F [1-(Perfluorohexyl)octane]
Method: (§1)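 BioMAP Diversity Plus panel of 12 human primary cell co-culture systems (3C, 4H, LPS, SAg, BT, BF4T, BE3C, CASM3C, HDF3CGF, KF3CT, MyoF, Mphg). Compounds were added 1 h before stimulation and left for 24 h (MyoF 48 h; BT 72 h for soluble read-outs or 6 d for IgG). Biomarkers were read by ELISA, cytotoxicity by SRB, PBMC viability and proliferation by Alamar Blue. Each well value was divided by the mean of 8 DMSO control wells on the same plate and log10 transformed; duplicate blinded samples were tested at 4 concentrations.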

[2] = compound: Cn1cnc([N+](=O)[O-])c1Sc1ncnc2[nH]cnc12 [Azathioprine]
Method: as §1

[3] = compound: FC(F)(F)C(F)(F)C(F)(F)C(F)(F)C(F)(F)C(F)(F)C(F)(F)CCI [1-Iodo-1H,1H,2H,2H-perfluorononane]
Method: as §1

[4] = compound: NC(=O)C(F)(F)C(F)(F)C(F)(F)C(F)(F)C(F)(F)C(F)(F)C(F)(F)F [Perfluorooctanamide]
Method: as §1

[5] = compound: O=C(O)C(F)(F)C(F)(F)C(F)(F)C(F)(F)C(F)(F)C(F)(F)C(F)(F)C(F)(F)Cl [9-Chloro-perfluorononanoic acid]
Method: as §1

[6] = compound: O=C(O)C(F)(F)OC(F)(F)C(F)(F)OC(F)(F)C(F)(F)C(F)(F)C(F)(F)F [Perfluoro-3,6-dioxadecanoic acid]
Method: as §1

[7] = compound: O=S(=O)(O)C(F)(F)C(F)(F)C(F)(F)C(F)(F)C(F)(F)C(F)(F)C(F)(F)C(F)(F)F [Perfluorooctanesulfonic acid]
Method: as §1

Test System	level (log10) ([1]; 6700 nM)	level (log10) ([1]; 20000 nM)	level (log10) ([2]; 1400 nM)	level (log10) ([2]; 4200 nM)	level (log10) ([2]; 13000 nM)	level (log10) ([2]; 38000 nM)	level (log10) ([3]; 6700 nM)	level (log10) ([3]; 20000 nM)	level (log10) ([4]; 6700 nM)	level (log10) ([4]; 20000 nM)	level (log10) ([4]; 60000 nM)	level (log10) ([5]; 6700 nM)	level (log10) ([5]; 20000 nM)	level (log10) ([6]; 6700 nM)	level (log10) ([6]; 20000 nM)	level (log10) ([6]; 60000 nM)	level (log10) ([7]; 6700 nM)	level (log10) ([7]; 20000 nM)	level (log10) ([7]; 60000 nM)
KF3CT:IL-1alpha	-0.009 ± 0.04	0.0175 ± 0.0092	-0.015 ± 0.0099	0.01 ± 0.013	0.0115 ± 0.005	0.035 ± 0.0042	-0.01 ± 0.0071	0.019 ± 0.047	-0.0055 ± 0.011	0.0125 ± 0.0064	0.039 ± 0.03	-0.0295 ± 0.042	-0.056 ± 0.031	0.022 ± 0.0057	-0.0495 ± 0.013	-0.0295 ± 0.005	0.0105 ± 0.0064	-0.0165 ± 0.00071	-0.016 ± 0.0028
HDF3CGF:TIMP-1	0.0105 ± 0.039	-0.0185 ± 0.03	-0.0195 ± 0.005	-0.0115 ± 0.033	-0.018 ± 0.024	-0.0695 ± 0.06	-0.0035 ± 0.0035	0.047 ± 0.0085	-0.0405 ± 0.049	-0.022 ± 0.02	-0.0575 ± 0.0035	-0.028 ± 0.027	-0.0105 ± 0.056	-0.0085 ± 0.00071	0.006 ± 0.11	0.0755 ± 0.083	-0.0015 ± 0.021	0.0165 ± 0.026	0.0895 ± 0.061
lMphg:CCL3/MIP-1alpha	-0.022 ± 0.021	0.0035 ± 0.021	-0.0005 ± 0.00071	-0.0235 ± 0.021	-0.0225 ± 0.03	-0.0975 ± 0.029	-0.001	0.045 ± 0.033	-0.0155 ± 0.0064	-0.021 ± 0.017	-0.028 ± 0.024	0.0205 ± 0.029	0.0045 ± 0.046	-0.022 ± 0.064	-0.0215 ± 0.049	-0.0545 ± 0.054	-0.0225 ± 0.011	-0.007	-0.0035 ± 0.0078
MyoF:Collagen IV	0.0135 ± 0.0064	0.0505 ± 0.069	0.008 ± 0.0042	0.0065 ± 0.0092	-0.013 ± 0.013	0.02 ± 0.016	0.027 ± 0.0042	0.082 ± 0.018	-0.0335 ± 0.026	-0.0345 ± 0.042	-0.079 ± 0.064	0.024 ± 0.0071	0.264 ± 0.031	0.0055 ± 0.013	0.0345 ± 0.019	0.235 ± 0.011	0.0045 ± 0.039	-0.0005 ± 0.005	0.037 ± 0.034
HDF3CGF:TIMP-2	-0.005 ± 0.067	-0.0035 ± 0.052	-0.0175 ± 0.00071	-0.023 ± 0.048	0.0315 ± 0.056	0.049 ± 0.018	0.0165 ± 0.011	0.0055 ± 0.0064	-0.0085 ± 0.005	-0.035 ± 0.011	-0.0145 ± 0.022	-0.0645 ± 0.04	-0.146 ± 0.029	-0.0245 ± 0.028	-0.035 ± 0.0085	-0.0625 ± 0.0078	-0.028 ± 0.0085	-0.0695 ± 0.043	-0.149 ± 0.018
BE3C:PAI-I	-0.025 ± 0.0057	-0.024	-0.0235 ± 0.044	0.015 ± 0.042	0.003 ± 0.05	-0.071 ± 0.03	0.016 ± 0.0071	-0.01 ± 0.0099	-0.01 ± 0.016	0.016 ± 0.0085	0.022 ± 0.0057	0.0005 ± 0.0035	-0.215 ± 0.017	0.0345 ± 0.021	0.009 ± 0.031	-0.11 ± 0.005	-0.006 ± 0.0014	-0.195 ± 0.0028	-0.301 ± 0.0035
CASM3C:PAI-I	-0.011 ± 0.0014	0.0035 ± 0.0078	-0.0045 ± 0.0021	0.007 ± 0.0057	0.007 ± 0.0014	0.01 ± 0.0042	0.0015 ± 0.00071	0.0035 ± 0.00071	-0.0015 ± 0.0064	0.004 ± 0.0057	-0.0015 ± 0.016	-0.002 ± 0.0071	0.0065 ± 0.0078	0.001 ± 0.0042	0.003 ± 0.0071	0.011 ± 0.011	-0.001 ± 0.0071	0 ± 0.0014	0.0095 ± 0.0021
HDF3CGF:CXCL10/IP-10	-0.02 ± 0.041	-0.03 ± 0.055	-0.0225 ± 0.022	-0.037 ± 0.044	-0.0825 ± 0.012	-0.152 ± 0.0078	-0.0265 ± 0.0035	-0.0645 ± 0.03	-0.0165 ± 0.019	0.003 ± 0.0014	0.0305 ± 0.011	-0.06 ± 0.027	-0.175 ± 0.0021	-0.0505 ± 0.019	-0.0745 ± 0.026	-0.156 ± 0.04	-0.0405 ± 0.036	-0.113 ± 0.039	-0.259 ± 0.054
CASM3C:CD106/VCAM-1	-0.023 ± 0.0014	-0.0115 ± 0.021	-0.0125 ± 0.022	-0.0155 ± 0.0092	-0.0485 ± 0.018	-0.136 ± 0.023	-0.019 ± 0.0099	-0.0645 ± 0.012	-0.0245 ± 0.005	-0.014 ± 0.028	-0.004 ± 0.027	-0.029 ± 0.0014	-0.027 ± 0.016	0.001 ± 0.011	-0.0145 ± 0.0092	0.0065 ± 0.037	-0.035 ± 0.0028	-0.038 ± 0.016	-0.104 ± 0.041
KF3CT:SRB	-0.0025 ± 0.023	-0.0115 ± 0.015	0.003 ± 0.0057	0.0015 ± 0.0064	0.001 ± 0.0057	-0.0065 ± 0.0021	0.0005 ± 0.005	0.005 ± 0.013	-0.0065 ± 0.005	-0.0075 ± 0.0035	0 ± 0.0028	-0.0135 ± 0.0035	-0.0145 ± 0.012	-0.0175 ± 0.011	-0.022 ± 0.013	-0.013 ± 0.031	-0.0195 ± 0.0021	-0.012 ± 0.0042	-0.012 ± 0.0099

— the supplement of paper PMC10331698
